Assay results: ChEMBL document CHEMBL1159364, “Inhibition of [3H]-LSD binding to 5-HT7 receptors by flavonoids from Scutellaria lateriflora” (J Nat Prod, 2003)
pIC50: −log10 of the molar value.

Target: 5-hydroxytryptamine receptor 7 (Homo sapiens, UniProt P34969)
Assay: Displacement of [3H]LSD from human 5HT7 receptor expressed in CHO cells
Assay type: cell-based

Sequence of 5-hydroxytryptamine receptor 7 (P34969 whole entry): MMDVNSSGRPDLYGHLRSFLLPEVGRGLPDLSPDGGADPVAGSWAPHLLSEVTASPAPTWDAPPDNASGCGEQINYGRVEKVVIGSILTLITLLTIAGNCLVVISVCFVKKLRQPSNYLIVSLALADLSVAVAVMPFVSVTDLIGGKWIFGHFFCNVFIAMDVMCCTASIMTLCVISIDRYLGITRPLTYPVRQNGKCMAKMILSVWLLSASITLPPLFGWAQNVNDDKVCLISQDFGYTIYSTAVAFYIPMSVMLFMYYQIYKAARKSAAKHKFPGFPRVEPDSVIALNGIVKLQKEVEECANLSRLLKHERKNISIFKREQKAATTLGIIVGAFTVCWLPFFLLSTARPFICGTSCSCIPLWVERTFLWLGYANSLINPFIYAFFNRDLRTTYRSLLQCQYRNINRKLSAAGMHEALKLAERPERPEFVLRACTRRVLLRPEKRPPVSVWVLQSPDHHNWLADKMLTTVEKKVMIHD

O=C(O)[C@H]1O[C@@H](Oc2cc3oc(-c4ccccc4)cc(=O)c3c(O)c2O)[C@H](O)[C@@H](O)[C@@H]1O [BAICALIN]
pIC50: < 3.70

O=C1C[C@@H](c2ccccc2)Oc2cc(O[C@@H]3O[C@H](C(=O)O)[C@@H](O)[C@H](O)[C@H]3O)c(O)c(O)c21 [DIHYDROBAICALIN]
pIC50: 3.75

O=C(O)[C@H]1O[C@@H](Oc2cc3oc(-c4ccc(O)cc4)cc(=O)c3c(O)c2O)[C@H](O)[C@@H](O)[C@@H]1O [SCUTELLARIN]
pIC50: 4.20

O=C(O)[C@H]1O[C@@H](Oc2cc3oc(-c4ccccc4O)cc(=O)c3c(O)c2O)[C@H](O)[C@@H](O)[C@@H]1O [IKONNIKOSIDE I]
pIC50: 3.87

O=c1cc(-c2ccccc2)oc2cc(O)c(O)c(O)c12 [BAICALEIN]
pIC50: < 3.46

COc1c(O)cc(O)c2c(=O)cc(-c3ccccc3)oc12 [WOGONIN]
pIC50: < 3.46
